Assay results from ChEMBL document CHEMBL1201862, “PubChem BioAssay data set” (2004).
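Cells were grown in 96-well plates and exposed to each compound for 48 hours at five concentrations; endpoints were interpolated linearly between bracketing concentrations, or set to the highest concentration if not reached. At the GI50, growth is halved.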 Activity calls are given as the source filed them. Rule as the data show it: active = GI50 up to about 1.1 µM and inactive = higher.

Columns and labels:
Assay in all cases: NCI-60 cell line screen, 48 h
A549 = system: A549
ACHN = system: ACHN
CAKI-1 = system: CAKI-1
COLO 205 = system: COLO 205
DU-145 = system: DU-145
EKVX = system: EKVX
HCT-116 = system: HCT-116
Hs-578T = system: Hs-578T
IGROV-1 = system: IGROV-1
KM12 = system: KM12
LOX IMVI = system: LOX IMVI
M14 = system: M14
MDA-N = system: MDA-N
NCI-H460 = system: NCI-H460
OVCAR-5 = system: OVCAR-5
RXF 393 = system: RXF 393
SK-MEL-2 = system: SK-MEL-2
UACC-257 = system: UACC-257
UACC-62 = system: UACC-62

Measured: GI50

O=[N+]([O-])c1cccc2nccc(NCCN3CCOCC3)c12
inactive: A549 18.2 µM | ACHN 22.4 µM | CAKI-1 2.6 µM | COLO 205 19.6 µM | DU-145 41.7 µM | EKVX 10.7 µM | HCT-116 13.4 µM | Hs-578T 15.9 µM | IGROV-1 17.4 µM | KM12 10.5 µM | LOX IMVI 13.4 µM | M14 15.9 µM | MDA-N 16.7 µM | NCI-H460 6.87 µM | OVCAR-5 21.4 µM | RXF 393 11.6 µM | SK-MEL-2 14.7 µM | UACC-257 10 µM | UACC-62 > 10 µM

O=c1oc2ccccc2cc1-c1nc2ccccc2c(=O)[nH]1
inactive: A549 > 100 µM | ACHN 90.8 µM | CAKI-1 > 100 µM | COLO 205 > 100 µM | DU-145 > 100 µM | EKVX > 100 µM | HCT-116 > 100 µM | Hs-578T > 100 µM | IGROV-1 > 100 µM | KM12 > 100 µM | LOX IMVI > 100 µM | M14 > 100 µM | MDA-N > 100 µM | NCI-H460 > 100 µM | OVCAR-5 > 100 µM | RXF 393 > 100 µM | SK-MEL-2 > 100 µM | UACC-257 > 100 µM | UACC-62 > 100 µM

CN(C)c1cccc(NC2=NCCO2)c1
inactive: A549 > 100 µM | ACHN 90.4 µM | CAKI-1 > 100 µM | COLO 205 20.6 µM | DU-145 > 100 µM | EKVX 78.5 µM | HCT-116 35.9 µM | Hs-578T 43.6 µM | IGROV-1 > 100 µM | KM12 40.5 µM | LOX IMVI 31.9 µM | M14 37.5 µM | MDA-N 17.5 µM | NCI-H460 32.4 µM | OVCAR-5 > 100 µM | RXF 393 > 100 µM | SK-MEL-2 14.9 µM | UACC-257 48.9 µM | UACC-62 50.7 µM

N=C(N)NC(CC(=O)O)c1ccccc1 (stereo unspecified)
inactive: A549 > 100 µM | ACHN > 100 µM | CAKI-1 > 100 µM | COLO 205 > 100 µM | DU-145 > 100 µM | EKVX > 100 µM | HCT-116 > 100 µM | Hs-578T > 100 µM | IGROV-1 > 100 µM | KM12 > 100 µM | LOX IMVI > 100 µM | M14 > 100 µM | MDA-N > 100 µM | NCI-H460 > 100 µM | OVCAR-5 > 100 µM | RXF 393 > 100 µM | SK-MEL-2 > 100 µM | UACC-257 > 100 µM | UACC-62 > 100 µM

O=C1c2cccc([N+](=O)[O-])c2C(=O)N1Cc1ccccc1
inactive: A549 > 100 µM | ACHN > 100 µM | CAKI-1 > 100 µM | COLO 205 > 100 µM | DU-145 > 100 µM | EKVX > 100 µM | HCT-116 > 100 µM | Hs-578T > 100 µM | IGROV-1 > 100 µM | KM12 > 100 µM | LOX IMVI > 100 µM | M14 > 100 µM | MDA-N > 100 µM | NCI-H460 > 100 µM | OVCAR-5 > 100 µM | RXF 393 > 100 µM | SK-MEL-2 > 100 µM | UACC-257 > 100 µM | UACC-62 > 100 µM

COC(=O)c1ccc2cc(O)c(O)cc2c1
inactive: A549 36.9 µM | ACHN 32.7 µM | CAKI-1 78.2 µM | COLO 205 37.9 µM | DU-145 53.2 µM | EKVX 20.5 µM | HCT-116 41 µM | Hs-578T 22.8 µM | IGROV-1 26.7 µM | KM12 30.9 µM | LOX IMVI 36.1 µM | M14 26.3 µM | MDA-N 45 µM | OVCAR-5 > 88.9 µM | RXF 393 48.2 µM | SK-MEL-2 39.5 µM | UACC-257 29.8 µM | UACC-62 26.2 µM

Cc1ccc(C(=N)Nc2ccccc2)cc1
inactive: A549 > 100 µM | ACHN > 100 µM | CAKI-1 > 100 µM | COLO 205 20.9 µM | DU-145 > 100 µM | EKVX > 100 µM | HCT-116 > 100 µM | Hs-578T > 100 µM | IGROV-1 > 100 µM | KM12 > 100 µM | LOX IMVI > 100 µM | M14 > 100 µM | MDA-N > 100 µM | NCI-H460 > 100 µM | OVCAR-5 > 100 µM | RXF 393 > 100 µM | SK-MEL-2 > 100 µM | UACC-257 38 µM | UACC-62 > 100 µM

N=c1oc2ccc(Cl)cc2cc1C(=O)NC1CCCCC1
inactive: A549 71.3 µM | ACHN > 100 µM | CAKI-1 > 100 µM | COLO 205 51.6 µM | DU-145 73.8 µM | HCT-116 55.5 µM | Hs-578T 30.9 µM | IGROV-1 41 µM | KM12 47.6 µM | LOX IMVI 53 µM | M14 > 100 µM | MDA-N 88.5 µM | NCI-H460 59.6 µM | OVCAR-5 > 100 µM | RXF 393 > 100 µM | SK-MEL-2 47.6 µM | UACC-257 > 100 µM | UACC-62 59.2 µM

C/C=C(/C)c1cnc(CC(C)C)c(=O)[nH]1
inactive: A549 > 100 µM | ACHN > 100 µM | CAKI-1 > 100 µM | COLO 205 > 100 µM | DU-145 > 100 µM | EKVX > 100 µM | HCT-116 > 100 µM | Hs-578T > 100 µM | IGROV-1 > 100 µM | KM12 > 100 µM | LOX IMVI > 100 µM | MDA-N > 100 µM | NCI-H460 > 100 µM | OVCAR-5 > 100 µM | RXF 393 > 100 µM | SK-MEL-2 > 100 µM | UACC-257 > 100 µM | UACC-62 > 100 µM

CN(C)CCCNC(=O)c1c(O)c2ccccc2n(C)c1=O
inactive: A549 82.2 µM | ACHN 43.8 µM | CAKI-1 41.4 µM | COLO 205 39.5 µM | DU-145 > 100 µM | EKVX > 100 µM | HCT-116 44.1 µM | Hs-578T > 100 µM | IGROV-1 > 100 µM | KM12 > 100 µM | LOX IMVI 30.6 µM | MDA-N 64.1 µM | NCI-H460 42 µM | OVCAR-5 63 µM | RXF 393 35.5 µM | SK-MEL-2 64.1 µM | UACC-257 67.5 µM | UACC-62 64.9 µM

O=C(CCCc1ccccn1)c1ccccc1
inactive: A549 > 100 µM | ACHN > 100 µM | CAKI-1 > 100 µM | COLO 205 > 100 µM | DU-145 > 100 µM | EKVX > 100 µM | HCT-116 > 100 µM | Hs-578T > 100 µM | IGROV-1 > 100 µM | LOX IMVI > 100 µM | M14 > 100 µM | MDA-N > 100 µM | NCI-H460 > 100 µM | OVCAR-5 > 100 µM | RXF 393 > 100 µM | SK-MEL-2 > 100 µM | UACC-257 > 100 µM | UACC-62 > 100 µM

N=C(N)NCC1CCCCCCN1 (stereo unspecified)
inactive: A549 > 100 µM | ACHN > 100 µM | CAKI-1 > 100 µM | COLO 205 > 100 µM | DU-145 > 100 µM | EKVX > 100 µM | HCT-116 > 100 µM | Hs-578T > 100 µM | IGROV-1 > 100 µM | KM12 > 100 µM | M14 > 100 µM | MDA-N > 100 µM | NCI-H460 > 100 µM | OVCAR-5 > 100 µM | RXF 393 > 100 µM | SK-MEL-2 > 100 µM | UACC-257 > 100 µM | UACC-62 > 100 µM

CC(Nc1cccc(Cl)c1)c1ccncc1 (stereo unspecified)
inactive: A549 > 100 µM | ACHN 87.1 µM | CAKI-1 40.7 µM | COLO 205 > 100 µM | DU-145 94.4 µM | EKVX 57.9 µM | HCT-116 70.8 µM | Hs-578T > 100 µM | IGROV-1 > 100 µM | KM12 > 100 µM | LOX IMVI > 100 µM | M14 > 100 µM | MDA-N > 100 µM | NCI-H460 > 100 µM | OVCAR-5 51.5 µM | RXF 393 42.8 µM | SK-MEL-2 > 100 µM | UACC-257 74.1 µM

CC(=O)Nc1c(S(=O)(=O)c2ccccc2)c(C)c(C)n1CCN(C)C
inactive: A549 > 100 µM | ACHN > 100 µM | CAKI-1 > 100 µM | COLO 205 > 100 µM | DU-145 > 100 µM | EKVX > 100 µM | HCT-116 > 100 µM | Hs-578T > 100 µM | IGROV-1 > 100 µM | KM12 > 100 µM | M14 70.3 µM | MDA-N > 100 µM | NCI-H460 > 100 µM | OVCAR-5 > 100 µM | RXF 393 > 100 µM | SK-MEL-2 > 100 µM | UACC-257 > 100 µM | UACC-62 > 100 µM

Cc1ccc(-n2c(O)c(C#N)c3[nH]nc(N)c3c2=O)cc1
inactive: A549 > 100 µM | CAKI-1 > 100 µM | COLO 205 > 100 µM | DU-145 > 100 µM | EKVX > 100 µM | HCT-116 > 100 µM | Hs-578T > 100 µM | IGROV-1 > 100 µM | KM12 > 100 µM | LOX IMVI > 100 µM | M14 > 100 µM | MDA-N > 100 µM | NCI-H460 > 100 µM | OVCAR-5 > 100 µM | RXF 393 > 100 µM | SK-MEL-2 > 100 µM | UACC-257 > 100 µM | UACC-62 > 100 µM
